The text below walks through data of patent US8247595B2, “Organic sulfur compound and its use for controlling harmful arthropod” (Sumitomo Chemical Company, Limited, priority 2007, dated 2012).

Format in all cases: in vivo
In one experiment the test system is Blattalla germanica. In words: Test Example 3: treated filter paper with sucrose bait, death rate of Blattalla germanica. Particulars: 500 ppm test solution, 0.7 ml on filter paper, 2 male imagoes, after 6 days; for pest or weed control at 500 ppm: 144 h. The protocol: Preparations of the present compounds (3), (4), (5), (6), (7), (9), (10), (13), (23), (24), (25), (26), (27), (28), (29), (30), (31), (32), (33), (34), (35), (38) and (39) obtained according to Formulation Example 44 were diluted so that the active ingredient concentration was 500 ppm to obtain test solutions.
A filter paper having a diameter of 5.5 cm was spread on the bottom of a polyethylene cup having a diameter of 5.5 cm and 0.7 ml of the test solution was added dropwise onto the filter paper. As a bait 30 mg of sucrose was uniformly placed on the filter paper. Into the polyethylene cup, 2 male imagoes of Blattalla germanica were released and the cup was sealed with a lid. After 6 days, the number of surviving Blattalla germanica was examined and the death rate of the pest was calculated.
As a result, in treatments with the present compounds (3), (4), (5), (6), (7), (9), (10), (13), (23), (24), (25), (26), (27), (28), (29), (30), (31), (32), (33), (34), (35), (38) and (39), the death rate of the pest was 100%.

For a further experiment, the system named is Musca domestica. In words: Test Example 2: treated filter paper with sucrose bait, death rate of Musca domestica. Particulars: 500 ppm test solution, 0.7 ml on filter paper, 10 female imagoes, after 24 hours. The protocol: Preparations of the present compounds (1), (2), (3), (4), (5), (6), (7), (8), (9), (10), (13), (18), (23), (24), (25), (26), (27), (28), (29), (30), (31), (32), (33), (34), (35), (38) and (39) obtained according to Formulation Example 44 were diluted so that the active ingredient concentration was 500 ppm to obtain test solutions.
A filter paper having a diameter of 5.5 cm was spread on the bottom of a polyethylene cup having a diameter of 5.5 cm and 0.7 ml of the test solution was added dropwise onto the filter paper. As a bait 30 mg of sucrose was uniformly placed on the filter paper. Into the polyethylene cup, 10 female imagoes of Musca domestica were released and the cup was sealed with a lid. After 24 hours, the number of surviving Musca domestica was examined and the death rate of the pest was calculated.
As a result, in treatments with the present compounds (1), (2), (3), (4), (5), (6), (7), (8), (9), (10), (13), (18), (23), (24), (25), (26), (27), (28), (29), (30), (31), (32), (33), (34), (35), (38) and (39), the death rate of the pest was 70% or more.

The subject of experiment [1] is Haemaphysalis longicornis. Briefly: Test Example 5: treated filter paper pouch, death rate of ticks. Particulars: 48 h, filter paper treated with 100 mg/m^2, non-blood-sucking nymphal ticks, 10 ticks/group, after 2 days, read-out: death rate of the tick. How it is done:
Five milligrams of any one of the present compounds (19), (23), (24), (27), (28), (29), (32), (33), (35), (38) and (39) was dissolved in 10 mL of acetone. One milliliter of the acetone solution was uniformly applied on one side of a filter paper (TOYO No. 2; 5×10 cm), so that the filter paper was treated with 100 mg/m^2 of the present compound. After drying, the filter paper was folded in two and its edges were clipped to make a pouch. Non-blood-sucking nymphal ticks (Haemaphysalis longicornis, 10 ticks/group) were put into the pouch, and the pouch was sealed with clips. After 2 days, the number of surviving ticks was examined and the death rate was calculated.
As a result, in treatments with the present compounds (19), (23), (24), (27), (28), (29), (32), (33), (35), (38) and (39), the death rate of the tick was 90%.

The next experiment has as its system Culex pipiens pallens. In words: Test Example 4: larvae released into treated water, death rate of Culex pipiens pallens. Particulars: 24 h, active ingredient concentration 3.5 ppm in water, 20 last-instar larvae, after one day. How it is done:
Preparations of the present compounds (1), (2), (3), (4), (5), (6), (7), (13), (14), (15), (16), (18), (22), (23), (24), (25), (26), (27), (28), (29), (30), (31), (32), (33), (34), (35), (36), (38) and (39) obtained according to Formulation Example 44 were diluted so that the active ingredient concentration was 500 ppm to obtain test solutions.
To 100 mL of ion-exchanged water, 0.7 ml of the test solution was added (active ingredient concentration: 3.5 ppm). Into the solution, 20 last-instar larvae of Culex pipiens pallens were released. After one day, the number of surviving Culex pipiens pallens was examined and the death rate of the pest was calculated.
As a result, in treatments with the present compounds (1), (2), (3), (4), (5), (6), (7), (13), (14), (15), (16), (18), (22), (23), (24), (25), (26), (27), (28), (29), (30), (31), (32), (33), (34), (35), (36), (38) and (39), the death rate of the pest was 90% or more.

Turning to `C#CCCC(F)(C(=O)OC)S(=O)(=O)CCC(F)(F)F` (stereo not shown) [present compound (9), methyl 2-fluoro-2-(3,3,3-trifluoropropylsulfonyl)-5-hexynoate], the pest or weed control at 500 ppm in the experiment on Blattalla germanica is 100%; with Musca domestica, not below 70%.
For the molecule `C#CCC(C)CCC(C#N)S(=O)(=O)CCC(F)(F)F` (stereo not shown) [present compound (27), 5-methyl-2-(3,3,3-trifluoropropylsulfonyl)-7-octynenitrile], the pest or weed control at 100 mg/m2 in experiment [1] is 90%. The pest or weed control at 500 ppm is 100% with Blattalla germanica and not below 70% in the experiment with Musca domestica. Besides, the pest or weed control at 3.5 ppm in the experiment with Culex pipiens pallens is not below 90%.
Regarding `C#CCCCCCCC(C#N)S(=O)(=O)CCC(F)(F)F` (stereo not shown) [present compound (25), 2-(3,3,3-trifluoropropylsulfonyl)-9-decynenitrile], the values for the pest or weed control at 500 ppm with Blattalla germanica and in the experiment with Musca domestica were 100% and not below 70%, respectively. Besides, the pest or weed control at 3.5 ppm with Culex pipiens pallens is not below 90%.
`C#CCCCCC(Cl)(C(=O)OC)S(=O)(=O)CCC(F)(F)F` (stereo not shown) [present compound (4), methyl 2-chloro-2-(3,3,3-trifluoropropylsulfonyl)-7-octyonate]: the “death rate of the pest” value in the experiment with Blattalla germanica is given as 100%.
In the case of `C#CCC(CC)CCC(C(=O)OC)S(=O)(=O)CCC(F)(F)F` (stereo not shown) [present compound (30), methyl 5-ethyl-2-(3,3,3-trifluoropropylsulfonyl)-7-octynoate], the pest or weed control at 500 ppm was 100% in the experiment with Blattalla germanica and not below 70% in the experiment with Musca domestica. In addition, the pest or weed control at 3.5 ppm with Culex pipiens pallens is not below 90%.
In the case of `C#CCCC(F)(C(N)=O)S(=O)(=O)CCC(F)(F)F` (stereo not shown) [present compound (10), 2-fluoro-2-(3,3,3-trifluoropropylsulfonyl)-5-hexynamide], the pest or weed control at 500 ppm with Blattalla germanica was 100%; in the experiment on Musca domestica, not below 70%.
On to `N#CC(CC=CC(F)(F)F)S(=O)(=O)CCC(F)(F)F` (stereo not shown) [present compound (19), 6,6,6-trifluoro-2-(3,3,3-trifluoropropylsulfonyl)-4-hexenenitrile], for which, in experiment [1], the pest or weed control at 100 mg/m2 amounted to 90%.
With `C#CCCCC(F)(C(N)=O)S(=O)(=O)CCC(F)(F)F` (stereo not shown) [present compound (13), 2-fluoro-2-(3,3,3-trifluoropropylsulfonyl)-6-heptynamide], the figures for the pest or weed control at 500 ppm in the experiment on Blattalla germanica and in the experiment on Musca domestica were 100% and not below 70%, respectively. Besides, in the experiment with Culex pipiens pallens, the pest or weed control at 3.5 ppm was not below 90%.
The matching figures for `C#CCCCCC(F)(C(N)=O)S(=O)(=O)CCC(F)(F)F` (stereo not shown) [present compound (3), 2-fluoro-2-(3,3,3-trifluoropropylsulfonyl)-7-octynamide]: 100%, not below 70% and not below 90%.
For `C#CCCCCCC(F)(C(=O)OC)S(=O)(=O)CCC(F)(F)F` (stereo not shown) [present compound (15), methyl 2-fluoro-2-(3,3,3-trifluoropropylsulfonyl)-8-nonynoate], in the experiment with Culex pipiens pallens, the pest or weed control at 3.5 ppm is not below 90%.
`C#CCC(CC)CCC(Cl)(C(=O)OC)S(=O)(=O)CCC(F)(F)F` (stereo not shown) [present compound (31), methyl 2-chloro-5-ethyl-2-(3,3,3-trifluoropropylsulfonyl)-7-octynoate]: the figures for the pest or weed control at 500 ppm with Blattalla germanica and in the experiment with Musca domestica were 100% and not below 70%, respectively. The pest or weed control at 3.5 ppm in the experiment with Culex pipiens pallens was not below 90%.
As for `CCC(=CCC(C(=O)OC)S(=O)(=O)CCC(F)(F)F)C(F)(F)F` (stereo not shown) [present compound (36), methyl 5-trifluoromethyl-2-(3,3,3-trifluoropropylsulfonyl)-4-heptenoate], the pest or weed control at 3.5 ppm in the experiment on Culex pipiens pallens is not below 90%.
`C#CCCCCC(F)(C(=O)OC)S(=O)(=O)CCC(F)(F)F` (stereo not shown) [present compound (2), methyl 2-fluoro-2-(3,3,3-trifluoropropylsulfonyl)-7-octynoate]: in the experiment with Musca domestica, the pest or weed control at 500 ppm is not below 70%. Moreover, in the experiment on Culex pipiens pallens, the pest or weed control at 3.5 ppm was not below 90%.
On to `C#CCCCCC(C(=O)OC)S(=O)(=O)CCC(F)(F)F` (stereo not shown) [present compound (1), methyl 2-(3,3,3-trifluoropropylsulfonyl)-7-octynoate], for which the pest or weed control at 500 ppm in the experiment with Musca domestica was not below 70%. In addition, the pest or weed control at 3.5 ppm in the experiment with Culex pipiens pallens was not below 90%.
For `C#CCCCCC(Cl)(C#N)S(=O)(=O)CCC(F)(F)F` (stereo not shown) [present compound (26), 2-chloro-2-(3,3,3-trifluoropropylsulfonyl)-7-octynenitrile], the results for the pest or weed control at 500 ppm in the experiment on Blattalla germanica and in the experiment with Musca domestica were 100% and not below 70%, respectively. Further, in the experiment on Culex pipiens pallens, the pest or weed control at 3.5 ppm was not below 90%.
With `C#CCCCCC(C)(C(=O)OC)S(=O)(=O)CCC(F)(F)F` (stereo not shown) [present compound (6), methyl 2-methyl-2-(3,3,3-trifluoropropylsulfonyl)-7-octyonate], the “death rate of the pest” value with Blattalla germanica came out at 100%.
Take `COC(=O)C(Cl)(CC=CC(F)(F)F)S(=O)(=O)CCC(F)(F)F` (stereo not shown) [present compound (18), methyl 2-chloro-6,6,6-trifluoro-2-(3,3,3-trifluoropropylsulfonyl)-4-hexenoate]: the pest or weed control at 500 ppm with Musca domestica was not below 70%. The pest or weed control at 3.5 ppm in the experiment with Culex pipiens pallens is not below 90%.
`C#CCCCCCC(C(=O)OC)S(=O)(=O)CCC(F)(F)F` (stereo not shown) [present compound (14), methyl 2-(3,3,3-trifluoropropylsulfonyl)-8-nonynoate]: the pest or weed control at 3.5 ppm in the experiment with Culex pipiens pallens was not below 90%.
`C#CCCC(C(=O)OC)S(=O)(=O)CCC(F)(F)F` (stereo not shown) [present compound (8), methyl 2-(3,3,3-trifluoropropylsulfonyl)-5-hexynoate] returned a pest or weed control at 500 ppm in the experiment with Musca domestica not below 70%.
As for `C#CCCCCC(C)(C(N)=O)S(=O)(=O)CCC(F)(F)F` (stereo not shown) [present compound (7), 2-methyl-2-(3,3,3-trifluoropropylsulfonyl)-7-octynamide], the pest or weed control at 500 ppm with Blattalla germanica is 100%; in the experiment on Musca domestica it was not below 70%. The pest or weed control at 3.5 ppm with Culex pipiens pallens is not below 90%.
For the molecule `C#CCCCCC(Cl)(C(N)=O)S(=O)(=O)CCC(F)(F)F` (stereo not shown) [present compound (5), 2-chloro-2-(3,3,3-trifluoropropylsulfonyl)-7-octynamide], the pest or weed control at 500 ppm with Blattalla germanica was 100%; in the experiment with Musca domestica it was not below 70%. Moreover, in the experiment with Culex pipiens pallens, the pest or weed control at 3.5 ppm is not below 90%.
The corresponding values for `CC(C#N)(C/C=C/C(F)(F)F)S(=O)(=O)CCC(F)(F)F` (stereo not shown) [present compound (34), 6,6,6-trifluoro-2-methyl-2-(3,3,3-trifluoropropylsulfonyl)-4-hexenenitrile] are 100%, not below 70% and not below 90%.
`C#CCCCCCC(F)(C(N)=O)S(=O)(=O)CCC(F)(F)F` (stereo not shown) [present compound (16), 2-fluoro-2-(3,3,3-trifluoropropylsulfonyl)-8-nonynamide]: the pest or weed control at 3.5 ppm in the experiment with Culex pipiens pallens is not below 90%.
